Experiments:
Monkey = experiment: Maximum reduction of the intraocular pressure in normotensive monkeys after topical administration of 3 ug of the compound; type: functional, Cercopithecidae, Eye
Felis catus [1] = experiment: Maximum irritation of cat eyes after topical administration of 5 ug of the compound; type: functional
Felis catus [2] = experiment: Maximum irritation of cat eyes after topical administration of 3 ug of the compound; type: functional
Felis catus [3] = species on record: Felis catus; experiment: Compound concentration which had a contractile effect on iris sphincter muscle of cats; type: functional

EC50 (Felis catus [3])	SMILES	Reduction of IOP (Monkey)	Irritation of eyes (Felis catus [1])	Irritation of eyes (Felis catus [2])
–	CC(C)OC(=O)CCC/C=C\C[C@@H]1[C@@H](/C=C/[C@@H](O)CCc2ccccc2)[C@H](O)C[C@@H]1O	2.9 mmHg	0.2 arbitrary units	–
–	CC(C)OC(=O)CCC/C=C\C[C@@H]1[C@@H](CC[C@@H](O)CCc2ccccc2)[C@H](O)C[C@@H]1O [LATANOPROST]	2.6 mmHg	–	0 arbitrary units
0.71 nM	O=C(O)CCC/C=C\C[C@@H]1[C@@H](CC[C@@H](O)CCc2ccccc2)[C@H](O)C[C@@H]1O [LATANOPROST ACID]	–	–	–
–	CC(C)OC(=O)CCC/C=C\C[C@@H]1[C@@H](/C=C/[C@H](O)CCc2ccccc2)[C@H](O)C[C@@H]1O	1.9 mmHg	0 arbitrary units	–
–	CC(C)OC(=O)CCC/C=C\C[C@@H]1[C@@H](CC[C@H](O)CCc2ccccc2)[C@H](O)C[C@@H]1O	1 mmHg	–	0 arbitrary units
–	CCCCC[C@H](O)CC[C@@H]1[C@@H](C/C=C\CCCC(=O)OC(C)C)[C@@H](O)C[C@H]1O	2.5 mmHg	–	2.5 arbitrary units
–	CCCCC[C@@H](O)CC[C@@H]1[C@@H](C/C=C\CCCC(=O)OC(C)C)[C@@H](O)C[C@H]1O	0.7 mmHg	–	2.3 arbitrary units

Reference: ChEMBL document CHEMBL1126813, “Phenyl-substituted prostaglandins: potent and selective antiglaucoma agents” (J Med Chem, 1993)
